{"source": "patent US20180311505A1", "about": "“METHODS FOR TREATING CANCER BY ENHANCING INTRATUMORAL IMMUNE RESPONSE” (THE GENERAL HOSPITAL CORPORATION, priority 2015, published 2018)", "test_system": "parental melanoma", "experiment": "Immune infiltrates (immunofluorescence, flow cytometry) in parental melanomas and draining lymph nodes", "assay_type": "in vivo, mouse", "procedure": "Immunohistochemical analyses. Mouse tumors were collected 5 days after treatment initiation and formalin-fixed paraffin-embedded (FFPE). Slides were baked for 60 minutes in a 60° C. oven and loaded into the Bond III™ staining platform. Slides were antigen retrieved in Bond™ Epitope Retrieval 1 for 30 minutes at 100° C. then incubated with CD3 (Abcam™, ab16669) at 1:150 diluted in Bond™ Primary Antibody diluent for 30 minutes at room temperature. Primary antibody was detected using Bond™ Polymer Refine Detection kit, slides were developed in DAB, then dehydrated and coverslipped. For each of 3 samples per group, 3 random 20× magnification fields were chosen at the tumor center for quantification. The open-source CellProfiler™ cell image analysis software3 was used to quantify positively stained cells in each image. The analysis pipeline utilized the UnmixColors module to separate each image into one of the Hematoxylin stain and one of the DAB stain. The EnhanceOrSuppressFeatures module was applied to the DAB image to enhance cellular features. Finally, the IdentifyPrimaryObjects module was used to count the number of cells present in the enhanced image.\nImmunofluorescence analyses. […]\nFlow cytometry. […] Flow cytometry data were acquired on the BD™ LSRII flow cytometer and analyzed using FlowJo™ software (Tree Star™)."}
{"smiles": "CC(C)Cn1cnc2c(N)nc3ccccc3c21", "note": "[imiquimod]", "values": [{"measurement": "PD-L2 expression on CD11c+ dendritic cells", "setting": "draining lymph nodes, parental melanoma-bearing mice", "value": "reduced"}, {"measurement": "granzyme B+ fraction of CD8+ TILs", "setting": "parental melanomas, imiquimod alone or with anti-PD-1 or aFP", "value": "expanded"}]}
